Measurements published in ChEMBL document CHEMBL5331068, “Briarane-type diterpenoids, the inhibitors of osteoclast formation by interrupting Keap1-Nrf2 interaction and activating Nrf2 pathway” (Eur J Med Chem, 2023).
Activity calls are given as the source filed them. No cut-off for these calls is given here.

Tests used:
BMDM [1] = experiment: Anti-osteoclastogenesis activity in C57BL/6 mouse BMDM cells assessed as inhibition of RANKL-induced osteoclastogenesis at 1 uM incubated for 7 days in the presence of M-CSF by TRAP-staining based microscopic analysis relative to control; type: functional; conditions: C57BL/6, BMDM, 168 h, time 7 day
[2] = target: T1, Kelch-like ECH-associated protein 1 (Homo sapiens, UniProt Q14145); experiment: Binding affinity to recombinant human Keap1 assessed as equilibrium dissociation constant by SPR analysis
T1 sequence (Q14145 whole entry): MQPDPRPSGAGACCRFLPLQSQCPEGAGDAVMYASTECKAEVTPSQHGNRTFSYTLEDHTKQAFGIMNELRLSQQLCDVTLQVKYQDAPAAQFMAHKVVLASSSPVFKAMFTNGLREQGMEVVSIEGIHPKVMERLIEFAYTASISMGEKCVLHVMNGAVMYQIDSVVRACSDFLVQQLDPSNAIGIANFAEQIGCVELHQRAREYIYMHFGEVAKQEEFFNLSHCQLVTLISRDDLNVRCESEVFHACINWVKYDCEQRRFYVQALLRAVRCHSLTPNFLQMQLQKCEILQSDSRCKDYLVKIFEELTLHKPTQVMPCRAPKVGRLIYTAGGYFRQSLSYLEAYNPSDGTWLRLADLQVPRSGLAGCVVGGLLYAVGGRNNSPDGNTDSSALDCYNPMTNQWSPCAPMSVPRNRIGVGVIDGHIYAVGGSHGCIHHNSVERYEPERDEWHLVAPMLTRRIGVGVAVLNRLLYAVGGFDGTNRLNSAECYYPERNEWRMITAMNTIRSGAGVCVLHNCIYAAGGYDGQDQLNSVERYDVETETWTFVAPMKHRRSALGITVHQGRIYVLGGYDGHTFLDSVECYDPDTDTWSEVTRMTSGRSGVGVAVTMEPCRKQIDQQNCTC

[3] = Cytotoxicity against C57BL/6 mouse BMDM cells incubated for 48 hrs by MTT assay; type: toxicity, cell-based; conditions: BMDM cells (bone marrow-derived macrophages)
BMDM [4] = experiment: Anti-osteoclastogenesis activity in C57BL/6 mouse BMDM cells assessed as inhibition of RANKL-induced osteoclastogenesis at 10 uM incubated for 7 days in the presence of M-CSF by TRAP-staining based microscopic analysis relative to control; type: functional; conditions: C57BL/6, BMDM, 168 h, time 7 day
[5] = target: T1, Kelch-like ECH-associated protein 1; experiment: Binding affinity to recombinant human Keap1 by SPR analysis

| SMILES | Kd [2] [µM] | Activity [5] | inhibition at 1 µM (BMDM [1]) [%] | CC50 at 48 h [3] [µM] | inhibition at 10 µM (BMDM [4]) [%] |
| --- | --- | --- | --- | --- | --- |
| O=P(O)(O)C(O)(Cn1ccnc1)P(=O)(O)O [ZOLEDRONIC ACID ANHYDROUS] |  |  | 87.1 |  |  |
| CCOCC1=C/[C@@H]2OC(=O)[C@H](C)[C@@]2(O)[C@@H](OC(C)=O)[C@H]2[C@@]3(CO3)[C@H](OC(C)=O)C[C@H](OC(=O)CC(C)C)[C@]2(C)[C@@H](OC(C)=O)/C=C\1 | > 100 |  |  | > 50 | 38.4 |
| CCOCC1=C/[C@@H]2OC(=O)[C@H](C)[C@@]2(O)[C@@H](OC(C)=O)[C@H]2[C@@]3(CO3)[C@H](OC(C)=O)C[C@H](OC(C)=O)[C@]2(C)[C@@H](OC(C)=O)/C=C\1 | 6.2 |  |  | > 50 | 88.3 |

The next lines start with results.

| Kd [2] [µM] | Activity [5] | SMILES | inhibition at 1 µM (BMDM [1]) [%] | CC50 at 48 h [3] [µM] | inhibition at 10 µM (BMDM [4]) [%] |
| --- | --- | --- | --- | --- | --- |
| > 100 | inactive | CC(=O)O[C@H]1CC[C@](O)(CO)[C@@H]2[C@H](OC(C)=O)[C@@]3(O)[C@H](/C=C(CO)\C=C/[C@H](OC(=O)COC(=O)CC(C)C)[C@@]12C)OC(=O)[C@@H]3C |  | > 50 | 33.7 |
| 6.6 |  | CC(=O)O[C@H]1/C=C\C(CO)=C/[C@@H]2OC(=O)[C@H](C)[C@@]2(O)[C@@H](OC(C)=O)[C@H]2[C@@](O)(CO)CC[C@H](OC(C)=O)[C@]12C |  | > 50 | 32 |
